Experimental data from US20110008465A1, “SESQUITERPENE FORMULATIONS, KITS AND METHODS OF USE THEREOF” (priority 2007, published 2011).

Assays:
Experiment in all cases: Chou and Talalay combination assay with beta-caryophyllene
Details in all cases: anticancer drug in combination with beta-caryophyllene; Chou and Talalay CI; 48 h
[1] = system: PC-3 (prostate cancer); format: cell-based, human
Procedure: (§1) Each solution was prepared fresh and use within 1 hour after preparation.
(§2) Cells were then harvested using trypsine-EDTA. Cells were counted using a hemocytometer and resuspended in DMEM+10% FBS medium.
(§3) Proliferation assay: Increasing concentrations of the anticancer agents and/or beta-caryophyllene were added to 96-well plate (100 μL per well). The final concentration of solvent in the culture medium was maintained below 0.5% (volume/volume) to avoid solvent toxicity.
(§4) The cells were incubated for 48 h at 37° C. and 5% CO2. Cytotoxicity was assessed using the resazurin reduction test (O'Brien et al., 2000). Fluorescence was measured on an automated 96-well Fluoroskan Ascent FI™ plate reader (Labsystems) using excitation and emission wavelengths of 530 nm and 590 nm, respectively. Resazurin was then removed.
(§5) Microplates were frozen at −20° C. overnight. Plates were thawed, a volume of 100 μl of 0.01% SDS in water was added to the wells, the plates were shaken at room temperature for 3 hours and then frozen once more at −20° C. overnight. […] Plates were shaken in the dark (at room temperature) for at least 2 hours, and fluorescence was measured on an automated 96-well Fluoroskan Ascent FI™ plate reader (Labsystems) using excitation and emission wavelengths of 360 nm and 460 nm, respectively.

[2] = system: MCF-7 (breast cancer); format: cell-based, human
Procedure: as §1, §2, §3, §4, §5
(§6) Results were analyzed using the Chou and Talalay method (9) and may be interpreted as follow: Cl>1 represents an antagonist effect of beta-caryophyllene with the corresponding anticancer agent; Cl=1 represents an additive effect of beta-caryophyllene with the corresponding anticancer agent; Cl<1 represents a potentiating effect of beta-caryophyllene with the corresponding anticancer agent.

[3] = system: MDA-MB-231 (breast cancer); format: cell-based, human
Procedure: as §1, §2, §3, §4, §5, §6

[4] = system: A-549 (lung cancer); format: cell-based, human
Procedure: as §1, §2, §3, §4, §5, §6

[5] = system: PA-1 (ovary cancer); format: cell-based, human
Procedure: as §1, §2, §3, §4, §5, §6

[6] = system: DLD-1 (colon cancer); format: cell-based, human
Procedure: as §1, §2, §3, §4, §5, §6

[7] = system: U-251 (human glioblastoma); format: cell-based
Procedure: as §1, §2, §3, §4, §5, §6

[8] = system: GL-261 (murine glioblastoma); format: cell-based
Procedure: as §1, §2, §3, §4, §5, §6

[9] = system: B16 (murine melanoma); format: cell-based
Procedure: as §1, §2, §3, §4, §5, §6

[10] = system: MEL-2 (human melanoma); format: cell-based
Procedure: as §1, §2, §3, §4, §5, §6

| SMILES | Potentiating activity PC-3 [1] | Potentiating activity MCF-7 [2] | Potentiating activity MDA [3] | Potentiating activity A-549 [4] | Potentiating activity PA-1 [5] | Potentiating activity DLD-1 [6] | Potentiating activity U-251 [7] | Potentiating activity GL-261 [8] | Potentiating activity B16 [9] | Potentiating activity MEL-2 [10] |
| --- | --- | --- | --- | --- | --- | --- | --- | --- | --- | --- |
| O=c1[nH]cc(F)c(=O)[nH]1 [5-fluorouracil, 5-Fluorouracil] | (2) (High: CI < 0.5 to IC50) | (1) (Very High: CI equal or below 1 at IC20 and Cl below 0.6 to IC50) | (3) (Moderate: 0.5 < CI < 0.8 at IC50) | (6) (Antagonist effect: CI > 1) | (2) (High: CI < 0.5 to IC50) | (3) (Moderate: 0.5 < CI < 0.8 at IC50) | (1) (Very High: potentiating or additive activity to IC20 and CI < 0.6 to IC50) | (3) (Moderate: 0.5 < CI < 0.8 to IC50) | (1) (Very High: potentiating or additive activity to IC20 and CI < 0.6 to IC50) | (1) (Very High: potentiating or additive activity to IC20 and CI < 0.6 to IC50) |
| N.N.O=C([O-])C1(C(=O)[O-])CCC1.[Pt+2] [Carboplatin, carboplatin] | (6) (Antagonist effect: CI > 1) | (1) (Very High: CI equal or below 1 at IC20 and Cl below 0.6 to IC50) | (3) (Moderate: 0.5 < CI < 0.8 at IC50) | (1) (Very High: CI equal or below 1 at IC20 and Cl below 0.6 to IC50) | (3) (Moderate: 0.5 < CI < 0.8 to IC50) | (3) (Moderate: 0.5 < CI < 0.8 at IC50) | (3) (Moderate: 0.5 < CI < 0.8 to IC50) | (2) (High: CI < 0.5 to IC50) | (1) (Very High: potentiating or additive activity to IC20 and CI < 0.6 to IC50) | (3) (Moderate: 0.5 < CI < 0.8 to IC50) |
| O=NN(CCCl)C(=O)NCCCl [Carmustine, carmustine] | (1) (Very High: potentiating or additive activity to IC20 and CI < 0.6 to IC50) | (1) (Very High: CI equal or below 1 at IC20 and Cl below 0.6 to IC50) | (3) (Moderate: 0.5 < CI < 0.8 at IC50) | (1) (Very High: CI equal or below 1 at IC20 and Cl below 0.6 to IC50) | (1) (Very High: potentiating or additive activity to IC20 and CI < 0.6 to IC50) | (2) (High: CI below 0.5 at IC50) | (1) (Very High: potentiating or additive activity to IC20 and CI < 0.6 to IC50) | (1) (Very High: potentiating or additive activity to IC20 and CI < 0.6 to IC50) | (1) (Very High: potentiating or additive activity to IC20 and CI < 0.6 to IC50) | (1) (Very High: potentiating or additive activity to IC20 and CI < 0.6 to IC50) |
| O=C(O)CCCc1ccc(N(CCCl)CCCl)cc1 [Chlorambucil, chlorambucil] |  | (1) (Very High: CI equal or below 1 at IC20 and Cl below 0.6 to IC50) | (1) (Very High: CI equal or below 1 at IC20 and Cl below 0.6 to IC50) | (3) (Moderate: 0.5 < CI < 0.8 at IC50) | (3) (Moderate: 0.5 < CI < 0.8 to IC50) | (3) (Moderate: 0.5 < CI < 0.8 at IC50) | (2) (High: CI < 0.5 to IC50) | (6) (Antagonist effect: CI > 1) | (1) (Very High: potentiating or additive activity to IC20 and CI < 0.6 to IC50) | (1) (Very High: potentiating or additive activity to IC20 and CI < 0.6 to IC50) |
